Results on 77 compounds are retold here after the METLIN SMRT retention time set (Domingo-Almenara et al. 2019).

The nature of this series: gradient 5% acetonitrile 3 min, to 50% in 2 min, to 85% in 15 min, held 3 min, 100 µL/min. The conditions noted are these: column: Zorbax Extend-C18 2.1 x 50 mm; eluents: water / acetonitrile, 0.1% formic acid. In short, it runs like this:
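The mobile phases were water and acetonitrile, each with 0.1% formic acid, pumped at 100 μL/min through a Zorbax Extend-C18 column (2.1 × 50 mm, 1.8 μm). Pure standards were injected as mixtures of ~100 molecules and detected by a quadrupole time-of-flight mass spectrometer in positive and negative ionization mode. Retention time came from computationally picked adduct peaks, each inspected by hand.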
`Cc1ccc(-n2cc3c(N4CCCC(C(=O)NC5CCCCCC5)C4)ncnc3n2)cc1` (configuration not stated) came in with an RP-LC retention time of 762 s. For `COCC(=O)N1CCN(c2nc(CN3CCC(C)CC3)cs2)CC1` the value was 570 s; for `CNC(=O)C1CCCN(c2nc3ncn(CC(=O)Nc4cccc(F)c4)c(=O)c3s2)C1` (configuration not stated), 645 s. `COc1ccc(S(=O)(=O)N2CCCC(C(=O)NCc3cccnc3)C2)cc1OC` (configuration not stated) returned an RP-LC retention time of 591 s. In turn, `CC1CCN(CCNS(=O)(=O)c2ccccc2-c2nc(-c3ccc(F)cc3)no2)CC1` gave an RP-LC retention time of 752 s. Regarding `O=C(Nc1nnc(-c2cc3ccccc3o2)o1)c1ccc([N+](=O)[O-])o1`, the RP-LC retention time turned out to be 792 s. `O=C(c1ccccc1)N1CCCCC1c1nncn1CC1CC1` (configuration not stated) displayed an RP-LC retention time of 592 s. In turn, `Cc1ccc(CNc2cc(-n3ccnc3)ncn2)cc1C` showed an RP-LC retention time of 682 s. Regarding `C#CCOCC1CCN(C(=O)Cc2noc3ccccc23)CC1`, the RP-LC retention time was found to be 761 s. As for `Cc1ccc(-n2ncc3c(=O)n(Cc4nc(-c5ccc(Br)cc5)no4)cnc32)cc1`, the RP-LC retention time was 1200 s. Compound `CC(C)CN1CCn2cc(C(=O)NCc3ccc(F)cc3F)nc2C1` registered an RP-LC retention time of 608 s.

In the case of `O=C(NCc1ccnc(N2CCSCC2)c1)Nc1ccc(Cl)cc1`, the RP-LC retention time came to 649 s. The compound `O=C(c1ccccc1C(F)(F)F)N1CCc2nc(-c3ccc(F)cc3)ncc2C1` registered an RP-LC retention time of 1020 s. For `CCCCS(=O)(=O)N1CCC(n2c(-c3ccc(OC)cc3)nc3cccnc32)C1` (configuration not stated), the RP-LC retention time is 846 s. `CCOc1ccccc1NC(=O)C1CCCN(c2cnc3nccnc3c2)C1` (configuration not stated) came in with an RP-LC retention time of 664 s. Turning to `COc1ccccc1CC(=O)Nc1ccc(-c2nc(Cn3cc(C)cn3)c(C)o2)cc1`, the RP-LC retention time was 909 s. Consider `COc1ccc(S(=O)(=O)Nc2cc(N3CCCS3(=O)=O)ccc2OC)cc1F`, for which the RP-LC retention time was 721 s. Turning to `CNC(=O)c1cccc2c1CCN2C(=O)Nc1ccc(C)cc1`, the RP-LC retention time was 747 s. In turn, `CN1CCN(CCNC(=O)CSCc2nc3cccnc3n2C2CCCCC2)CC1` showed an RP-LC retention time of 600 s. The figure for `O=C(NCCOCCOCCNC(=O)Nc1ccccc1)Nc1ccccc1` is 679 s; for `O=C(NCCC1CCN(C(=O)Nc2cc(F)ccc2F)CC1)c1cccs1` it is 818 s. The figure for `CCN(CC)C(=O)c1ccc(-c2nc3cc(NS(=O)(=O)c4ccc(Cl)cc4)ccc3n2C)cc1` is 735 s; for `COc1ccc2c(c1)c(CN1CCOCCNC(=O)CC1)cn2C(C)C` it is 642 s. The compound `Oc1ccc(Br)cc1CN1CCN(c2cc(-c3ccncc3)[nH]n2)CC1` yielded an RP-LC retention time of 526 s. Consider `COCC(=O)Nc1ccc2nc(N3CCN(C4CCCCC4)CC3)cc(C(=O)O)c2c1`, for which the RP-LC retention time is 558 s. For `CCc1nc2c(c(=O)n1CC(=O)Nc1ccc(OC)cc1)CN(Cc1ccccc1)CC2` the value was 635 s.

In the case of `O=C(Cn1nc2c(Oc3ccc(Cl)cc3)nccn2c1=O)Nc1ccc(F)c(Cl)c1`, the RP-LC retention time came out at 990 s. The compound `Cc1nc2cc(-c3noc(C(C)NC(=O)c4ccccc4)n3)ccc2n(C2CCCC2)c1=O` (configuration not stated) displayed an RP-LC retention time of 999 s. `Cc1ccc(-c2csc(-n3nc(C)c(CC(=O)Nc4c(C)cccc4C)c3C)n2)cc1` had an RP-LC retention time of 1190 s. As to `O=C(Nc1ccccc1F)c1c(O)c2cccnc2n(-c2ccc(F)cc2)c1=O`, the RP-LC retention time turned out to be 1220 s. `CCOC(=O)c1oc2ccc(S(=O)(=O)NCC3Cn4cccc4C(=O)N3C)cc2c1C` (configuration not stated): the RP-LC retention time came to 810 s. In turn, `C=CCNC(=O)c1cnn(-c2cc(-c3nc(CC)no3)ccn2)c1C` registered an RP-LC retention time of 845 s.

With `COC(=O)C(C)Sc1nc2c(c(=O)n1-c1ccc(OC(F)(F)F)cc1)SCC2` (configuration not stated), the RP-LC retention time amounted to 949 s. `CCCN1C(=O)c2cc(S(=O)(=O)Nc3ccccc3Cl)ccc2Oc2cccnc21` showed an RP-LC retention time of 1090 s. For `NC(=O)C1CCN(C(=O)CCCc2nc3cccnc3n2Cc2ccc(F)cc2)CC1` the value was 602 s. `Cc1cccc(NC(=O)C2CCN(S(=O)(=O)c3ccc4c(c3)sc(=O)n4C(C)C)CC2)n1` had an RP-LC retention time of 815 s.

Turning to `Cc1ccc(-n2nc(C)c3c(=O)n(CC(=O)NCc4ccccc4Cl)ccc32)cc1`, the RP-LC retention time worked out at 872 s. `CC(C)n1c2ccccc2c2nnc(SCC(=O)Nc3nc(-c4ccccc4)cs3)nc21` displayed an RP-LC retention time of 1040 s. `CC1Oc2ccccc2N(CC(=O)N2CCCN(c3cc(=O)n(C(C)C)c(=O)n3C(C)C)CC2)C1=O` (configuration not stated) gave an RP-LC retention time of 845 s.

For the compound `CCc1cccc(N2C=C(C(=O)OC)S(=O)(=O)c3ccccc32)c1`, the RP-LC retention time was 930 s.

Compound `O=C(NCCc1c[nH]c2ccccc12)C1CCCN(c2nn3c(=O)c4c(nc3s2)CCCC4)C1` (configuration not stated) yielded an RP-LC retention time of 775 s. `CCc1ccccc1NC(=O)C1CCN(S(C)(=O)=O)c2cc(C)ccc2O1` (configuration not stated) returned an RP-LC retention time of 880 s. `Cc1cc(Cl)ccc1OCc1nc(-c2ccc3c(c2)ncn3CCC(=O)N2CCCC2)no1`: the RP-LC retention time is 889 s. In turn, `Cc1ccc(CS(=O)Cc2ccc(C(=O)N3CCN(c4ccccn4)CC3)o2)cc1` (configuration not stated) came in with an RP-LC retention time of 619 s.

Consider `Cn1c(N2CCCC(C(=O)N3CCN(c4cccc(C(F)(F)F)c4)CC3)C2)cc(=O)n(C)c1=O` (configuration not stated), for which the RP-LC retention time was 831 s. In turn, `CSc1cccc(NC(=O)C2CCN(c3cnc4nccnc4c3)CC2)c1` gave an RP-LC retention time of 752 s. For the compound `Cc1cc(C)cc(S(=O)(=O)N2CCC3(CC2)NCCN=C3NCc2cccc(F)c2)c1`, the RP-LC retention time was 772 s. `Cc1cc(C)cc(C(=O)N2CCc3[nH]nc(C(=O)N(C)C)c3C2)c1` displayed an RP-LC retention time of 655 s. In turn, `Cc1nn2c(CNS(=O)(=O)c3ccc(F)c(F)c3)c(-c3ccccc3)nc2s1` came in with an RP-LC retention time of 906 s. `O=C(Cc1ccccc1Cl)N1CCN(c2cc(-c3ccccc3)[nH]n2)CC1`: the RP-LC retention time stood at 828 s. For `CC1=C(c2ccc(F)cc2)S(=O)(=O)N=C1N1CCCN(C(=O)C2CCOC2)CC1` (configuration not stated) the value was 886 s; for `Cn1cnc2c(C(=O)Nc3cccc(Cl)c3)nn(-c3ccccc3)c2c1=O`, 945 s; for `O=C(NCCCN1CCc2ccccc2C1)c1c(OCC2CC2)cc(=O)n2c1CCCCC2`, 566 s. `O=C(CCCc1c[nH]c2ccccc12)N1CCN2CCS(=O)(=O)N(C3CC3)C(=O)C2C1` (configuration not stated) came in with an RP-LC retention time of 824 s. Consider `O=C(Nc1ccccc1F)C1CCN(S(=O)(=O)c2cc(C(=O)N3CCCC3)cs2)CC1`, for which the RP-LC retention time came to 790 s. Compound `O=C(CSc1cc(-n2cccn2)ncn1)Nc1ccccc1Br` showed an RP-LC retention time of 965 s. In the case of `O=C(c1cc(-c2ccccn2)n[nH]1)N1CCCC(C(=O)N2CCc3ccccc32)C1` (configuration not stated), the RP-LC retention time was determined as 713 s. In turn, `O=C(CCC1CCCN(C(=O)Nc2ccc(Cl)cc2)C1)NCc1ccccc1Cl` (configuration not stated) came in with an RP-LC retention time of 939 s. The compound `O=C(CCS(=O)(=O)c1ccccc1)Nc1cc(-c2ccccc2)nn1CCO` showed an RP-LC retention time of 695 s. Consider `Cc1ccc(-c2nc(-c3ccc4c(c3)oc(=O)n4C(C)C)no2)cc1C`, for which the RP-LC retention time came out at 1130 s. On to `Cc1ccccc1OCC(=O)Nc1nc(-c2ccccc2)cs1`, for which the RP-LC retention time was 1110 s. The figure for `O=C(CSc1cn(CC(=O)N2CCCCCC2)c2ccccc12)NCC1CCCO1` (configuration not stated) is 799 s; for `Cc1ccc(/C=C/c2onc(C)c2S(=O)(=O)N2CCC(C(=O)NCC3CCCO3)CC2)cc1` (configuration not stated) it is 828 s; for `Cn1c(=O)n(Cc2ccccc2)c(=O)c2c1nc(N1CCNCC1)n2Cc1ccccc1` it is 672 s. As for `Cc1noc2nc(CCC(=O)NCc3ccccc3F)nc(N3CCCC3)c12`, the RP-LC retention time came out at 767 s. As to `COc1c(NC=O)c2c(c([N+](=O)[O-])c1OC)C(=O)OC2`, the RP-LC retention time came to 760 s. In turn, `O=C(Cn1cccn1)N1CCCC(COCc2ccccc2)C1` (configuration not stated) had an RP-LC retention time of 709 s. `Clc1cccc(-c2nnc(-c3nc(N4CCOCC4)c4ccccc4n3)o2)c1` returned an RP-LC retention time of 973 s.

`COc1ccc(-c2nc3cnccn3c2Nc2ccc(C(=O)NCc3ccco3)cc2)cc1OC` returned an RP-LC retention time of 682 s. For the compound `Cn1cccc1C(=O)N1CCN(C(=O)c2nnn3c2COC(c2ccc(Cl)cc2)C3)CC1` (configuration not stated), the RP-LC retention time came out at 839 s. Regarding `CC(C)n1c(=O)c(NCc2ccccc2Br)nc2ccncc21`, the RP-LC retention time was 699 s.

In the case of `CN(Cc1ccoc1)C(=O)Nc1ccccc1`, the RP-LC retention time worked out at 785 s. For `Cc1ccc(NC(=O)Cn2ncc3c(c2=O)N(C2CC2)C(=O)CS3)cc1C` the value was 732 s.

Compound `CCCn1c(=O)c(C)nc2cc(-c3noc(Cc4ccc(OC)cc4)n3)ccc21` gave an RP-LC retention time of 1040 s. As for `O=C(NCc1ccccn1)C1CCc2sc(C(=O)N3CCCC3)cc2C1` (configuration not stated), the RP-LC retention time was found to be 518 s.

Regarding `COc1ccc(S(=O)(=O)N2CCCN(c3ccc(=O)n(-c4ccccc4)n3)CC2)cc1`, the RP-LC retention time is 822 s.

`CCc1onc(C)c1C1CCCN1C(=O)c1ccc(OC)c(OC)c1` (configuration not stated) returned an RP-LC retention time of 714 s.
